From ChEMBL document CHEMBL6087419, “Structural insights into tryptamine psychedelics: The role of hydroxyl indole ring site in 5-HT2A receptor activation and psychedelic-like activity” (Eur J Med Chem, 2025)
Active and inactive are the calls of the source. The rule behind the calls is not given here.

Assays:
Mus musculus [1] = experiment: Psychedelic like activity in male BALB/c mouse assessed as induction of head-twitch responses at 1 mg/kg, ip measured after 30 mins by video recording analysis; format: functional, organism-based
Mus musculus [2] = experiment: Psychedelic like activity in male BALB/c mouse assessed as induction of head-twitch responses administered intraperitoneally and measured after 30 mins by video recording analysis; format: functional; conditions: 0.5 h, route ip
Mus musculus [3] = experiment: Psychedelic like activity in male BALB/c mouse assessed as induction of head-twitch responses at 3 to 10 mg/kg, ip measured after 30 mins by video recording analysis; format: functional, organism-based; conditions: dose 3-10 mg/kg

| SMILES | Activity (Mus musculus [1]) | ED50 (Mus musculus [2]) [mg/kg] | Activity (Mus musculus [3]) |
| --- | --- | --- | --- |
| CN(C)CCc1c[nH]c2ccc(O)cc12 | Active | – | – |
| CN(C)CCc1c[nH]c2cc(O)ccc12 | inactive | – | – |
| CN(C)CCc1c[nH]c2cccc(O)c12 [PSILOCIN] | Active | 0.86 | inactive |
| CN(C)CCc1c[nH]c2c(O)cccc12 | inactive | – | – |
